A word on the Kd: it is the free concentration of one partner at which half of the binding sites on the other are occupied at equilibrium, for simple one-to-one binding. A higher Kd goes with a looser complex.

Test [1] has as its system adenosine A2 receptors. The test can be described thus: Adenosine A2 receptor binding ([3H]CGS-21680) in airway smooth muscle membranes of treated rabbits. More on the design: species or system rabbit. Conditions: airway smooth muscle membranes after cross-over experiment; mean (n = 8) ± SEM. The text has this: At the conclusion of the cross-over experiment of Example 3 above, airway smooth muscle from all rabbits was quantitatively analyzed for adenosine A1 receptor number. As a control for the specificity of the anti-sense oligonucleotide, adenosine A2 receptors, which should not have been affected, were also quantified. Airway smooth muscle tissue was dissected from each rabbit and a membrane fraction prepared according to the method of Kleinstein et al. (Kleinstein, J. and Glossrnann, H., Naunyn-Schrniedeberg's Arch Pharmacol. 305: 191-200 (1978)), the relevant portion of which is hereby incorporated in its entirety by reference, with slight modifications. Crude plasma membrane preparations were stored at −70 EC until the time of assay. Protein content was determined by the method of Bradford (M. Bradford, Anal. Biochem. 72, 240-254 (1976), the relevant portion of which is hereby incorporated in its entirety by reference). Frozen plasma membranes were thawed at room temperature and were incubated with 0.2 U/ml adenosine deaminase for 30 minutes at 37 EC to remove endogenous adenosine. The binding of [^3H] […] CGS-21680 ([…]) was measured as previously described by Ali et al. (Ali, S. et al., J. Pharmacol. Exp. Ther. 268, Ara. J. Physiol 266, L271-277 (1994), the relevant portion of which is hereby incorporated in its entirety by reference). […]

For test [2], the target named is T1, adenosine A1 receptor (Oryctolagus cuniculus, UniProt P34970).
T1 construct: Airway smooth muscle tissue was dissected from each rabbit and a membrane fraction prepared; from tissue; host or cells: rabbit airway smooth muscle, crude plasma membranes
T1 sequence (P34970 1-328): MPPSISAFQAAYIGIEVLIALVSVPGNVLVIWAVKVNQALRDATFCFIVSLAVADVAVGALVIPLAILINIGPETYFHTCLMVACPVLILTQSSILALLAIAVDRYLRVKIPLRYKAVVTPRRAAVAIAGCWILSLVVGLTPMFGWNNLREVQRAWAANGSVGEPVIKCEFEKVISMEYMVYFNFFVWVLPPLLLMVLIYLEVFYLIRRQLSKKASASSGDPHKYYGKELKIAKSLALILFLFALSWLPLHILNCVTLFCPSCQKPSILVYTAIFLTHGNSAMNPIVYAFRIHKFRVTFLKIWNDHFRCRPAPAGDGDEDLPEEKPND
In words: Adenosine A1 receptor binding ([3H]DPCPX) in airway smooth muscle membranes of treated rabbits. Conditions: for A1 receptor Bmax: [3H]DPCPX. The text has this: At the conclusion of the cross-over experiment of Example 3 above, airway smooth muscle from all rabbits was quantitatively analyzed for adenosine A1 receptor number. As a control for the specificity of the anti-sense oligonucleotide, adenosine A2 receptors, which should not have been affected, were also quantified. Airway smooth muscle tissue was dissected from each rabbit and a membrane fraction prepared according to the method of Kleinstein et al. (Kleinstein, J. and Glossrnann, H., Naunyn-Schrniedeberg's Arch Pharmacol. 305: 191-200 (1978)), the relevant portion of which is hereby incorporated in its entirety by reference, with slight modifications. Crude plasma membrane preparations were stored at −70 EC until the time of assay. Protein content was determined by the method of Bradford (M. Bradford, Anal. Biochem. 72, 240-254 (1976), the relevant portion of which is hereby incorporated in its entirety by reference). Frozen plasma membranes were thawed at room temperature and were incubated with 0.2 U/ml adenosine deaminase for 30 minutes at 37 EC to remove endogenous adenosine. The binding of [^3H] DPCPX (A1 receptor-specific) or [^3H] CGS-21680 ([…]) was measured as previously described by Ali et al. (Ali, S. et al., J. Pharmacol. Exp. Ther. 268, Ara. J. Physiol 266, L271-277 (1994), the relevant portion of which is hereby incorporated in its entirety by reference). […] There was no change in adenosine A2 receptor number, as assayed by specific binding of the A2 receptor-specific agonist 2-[p-(2-carboxyethyl)-phenethylamino]-5′-(N-ethylcarboxamido) adenosine (CGS-21680). This is illustrated in Table 6 below.
A membrane fraction was prepared according to the method of Ali et al. (Ali, S., et al., Am. J. Resp. Crit Care Med. 149: 908 (1994), the relevant section relating to the preparation of the membrane fraction is incorporated in its entirety hereby by reference). The protein content was determined by the method of Bradford and plasma membranes were incubated with 0.2 U/ml adenosine deaminase for 30 minutes at 37 EC to remove endogenous adenosine. See, Bradford, M. M. Anal. Biochem. 72, 240-254 (1976), the relevant portion of which is hereby incorporated in its entirety by reference. The binding of [^3H]DPCPX, [^3H]NPC17731, or [^3H]CGS-21680 was measured as described by Jarvis et al. See, Jarvis, M. F., et al., Pharmacol. Exptl. Ther. 251, 888-893 (1989), the relevant portion of which is fully incorporated herein by reference.

Consider “5′-GTAGCAGGCGGGGATGGGGGC-3′ [HAdA1MM1, reference compound]”, for which, in test [1], the “A2-Specific Binding” value stood at 302 ± 22. Also, the equilibrium dissociation constant (Kd) came to 0.37 ± 0.033 nM in test [2] (Kd of [3H]DPCPX in membranes of rabbits treated with 2 mg oligo) and 0.34 ± 0.027 nM in test [2] (Kd of [3H]DPCPX in membranes of rabbits treated with 20 mg oligo). The results for the “A1 receptor Bmax” value in test [2] (rabbits treated with 2 mg oligo) and in test [2] (rabbits treated with 20 mg oligo) were 51.8 ± 3.88 fmol and 52.0 ± 3.64 fmol, respectively. For the same substance, the “A1-Specific Binding” value in test [2] (airway smooth muscle membranes after cross-over experiment, mean (n = 8) ± SEM) is 1105 ± 48.

These data come from US20070021360A1, “Compositions, formulations and kit with anti-sense oligonucleotide and anti-inflammatory steroid and/or obiquinone for treatment of respiratory and lung disesase” (priority 2001, published 2007).
